# System: MV-4-11 cells
# Experiment: Gene expression microarray analysis (Affymetrix PrimeView) and GSEA
# Assay type: cell-based, human
# Set-up: RFU PODN (11730768_x_at) / Fold change /veh PODN (11730768_x_at) / RFU LINC00158 (11744669_a_at) / Fold change /veh LINC00158 (11744669_a_at) / RFU DUSP10 (11751237_a_at) / Fold change /veh DUSP10 (11751237_a_at) / RFU ID3 (11757404_x_at) / Fold change /veh ID3 (11757404_x_at) / RFU PLEKHG5 (11737974_s_at) / Fold change /veh PLEKHG5 (11737974_s_at) / RFU LRRC4B (11730491_at) / Fold change /veh LRRC4B (11730491_at) / RFU GIMAP4 (11747438_a_at) / Fold change /veh GIMAP4 (11747438_a_at) / RFU KRT8 (11758183_x_at) / Fold change /veh KRT8 (11758183_x_at) / RFU CNN1 (11734310_a_at) / Fold change /veh CNN1 (11734310_a_at) / RFU VPS37D (11726825_at) / Fold change /veh VPS37D (11726825_at) / RFU C10orf10 (11716522_x_at) / Fold change /veh C10orf10 (11716522_x_at) / RFU KIR2DL2 /// KIR2DL4 /// KIR2DL5A /// KIR2DL5B /// KIR2DS1 /// KIR2DS2 /// KIR2DS3 /// KIR2DS4 /// KIR3DL3 /// KIR3DL3 /// KIR3DS1 (11738374_at) / Fold change /veh KIR2DL2 /// KIR2DL4 /// KIR2DL5A /// KIR2DL5B /// KIR2DS1 /// KIR2DS2 /// KIR2DS3 /// KIR2DS4 /// KIR3DL3 /// KIR3DL3 /// KIR3DS1 (11738374_at) / RFU C1QL1 (11718748_at) / Fold change /veh C1QL1 (11718748_at) / RFU TMPRSS4 (11747572_a_at) / Fold change /veh TMPRSS4 (11747572_a_at) / RFU HAMP (11756126_x_at) / Fold change /veh HAMP (11756126_x_at) / RFU RNFT2 (11725882_a_at) / Fold change /veh RNFT2 (11725882_a_at) / RFU NR4A2 (11747474_a_at) / Fold change /veh NR4A2 (11747474_a_at) / RFU ABCC12 (11746883_a_at) / Fold change /veh ABCC12 (11746883_a_at) / RFU TMEM136 (11760407_x_at) / Fold change /veh TMEM136 (11760407_x_at) / RFU CLDN22 /// WWC2 (11732394_at) / Fold change /veh CLDN22 /// WWC2 (11732394_at) / RFU HLA-DPB1 (11760878_x_at) / Fold change /veh HLA-DPB1 (11760878_x_at) / RFU SPINT1 (11716480_a_at) / Fold change /veh SPINT1 (11716480_a_at) / RFU GAP43 (11754022_s_at) / Fold change /veh GAP43 (11754022_s_at) / RFU A4GNT (11735810_at) / Fold change /veh A4GNT (11735810_at) / RFU PRB3 (11715151_x_at) / Fold change /veh PRB3 (11715151_x_at) / RFU TUBB4B (11761932_at) / Fold change /veh TUBB4B (11761932_at) / RFU CAPN14 (11732068_a_at) / Fold change /veh CAPN14 (11732068_a_at) / RFU TMCC2 (11721928_a_at) / Fold change /veh TMCC2 (11721928_a_at) / RFU IRGQ (11745062_a_at) / Fold change /veh IRGQ (11745062_a_at) / RFU FAM174B (11720279_a_at) / Fold change /veh FAM174B (11720279_a_at) / RFU TMPRSS4 (11748680_a_at) / Fold change /veh TMPRSS4 (11748680_a_at) / RFU FAM212B (11763350_a_at) / Fold change /veh FAM212B (11763350_a_at) / RFU PLEKHG5 (11743358_a_at) / Fold change /veh PLEKHG5 (11743358_a_at) / RFU ZSCAN30 (11745921_a_at) / Fold change /veh ZSCAN30 (11745921_a_at) / RFU CMKLR1 (11741424_a_at) / Fold change /veh CMKLR1 (11741424_a_at) / RFU LOC101060620 /// MAPK8IP1 (11723275_at) / Fold change /veh LOC101060620 /// MAPK8IP1 (11723275_at) / RFU SPTSSB (11747773_x_at) / Fold change /veh SPTSSB (11747773_x_at) / RFU PRSS12 (11739890_at) / Fold change /veh PRSS12 (11739890_at) / RFU BIN1 (11741810_x_at) / Fold change /veh BIN1 (11741810_x_at) / RFU WNT11 (11732464_a_at) / Fold change /veh WNT11 (11732464_a_at) / RFU C10orf10 (11716521_a_at) / Fold change /veh C10orf10 (11716521_a_at) / RFU C5orf56 (11738089_at) / Fold change /veh C5orf56 (11738089_at) / RFU CYB561 (11721691_x_at) / Fold change /veh CYB561 (11721691_x_at) / RFU ANKRD19P (11752326_a_at) / Fold change /veh ANKRD19P (11752326_a_at) / RFU OR2T12 /// OR2T33 /// OR2T8 (11738714_s_at) / Fold change /veh OR2T12 /// OR2T33 /// OR2T8 (11738714_s_at) / RFU VCAN (11748164_a_at) / Fold change /veh VCAN (11748164_a_at) / RFU JSRP1 (11732532_at) / Fold change /veh JSRP1 (11732532_at) / RFU KRTAP10-11 (11738290_x_at) / Fold change /veh KRTAP10-11 (11738290_x_at) / RFU MYO3A (11730013_a_at) / Fold change /veh MYO3A (11730013_a_at) / RFU EBF3 (11725865_a_at) / Fold change /veh EBF3 (11725865_a_at) / RFU CAMK2N1 (11719241_x_at) / Fold change /veh CAMK2N1 (11719241_x_at) / RFU C5orf56 (11738088_a_at) / Fold change /veh C5orf56 (11738088_a_at) / RFU OLFML3 (11715873_a_at) / Fold change /veh OLFML3 (11715873_a_at) / RFU LOC100653217 /// NTM (11731650_a_at) / Fold change /veh LOC100653217 /// NTM (11731650_a_at) / RFU MAPK11 (11762145_a_at) / Fold change /veh MAPK11 (11762145_a_at) / RFU FIZ1 (11724087_x_at) / Fold change /veh FIZ1 (11724087_x_at) / RFU OASL (11726364_x_at) / Fold change /veh OASL (11726364_x_at) / RFU SOX15 (11748057_x_at) / Fold change /veh SOX15 (11748057_x_at) / RFU CD79A (11719716_a_at) / Fold change /veh CD79A (11719716_a_at) / RFU HIST1H1D (11736915_at) / Fold change /veh HIST1H1D (11736915_at) / RFU CASKIN2 (11723855_a_at) / Fold change /veh CASKIN2 (11723855_a_at) / RFU LOC730098 (11760151_x_at) / Fold change /veh LOC730098 (11760151_x_at) / RFU OR4N2 (11742367_at) / Fold change /veh OR4N2 (11742367_at) / RFU PRRT2 (11749266_a_at) / Fold change /veh PRRT2 (11749266_a_at) / RFU SNX32 (11753110_a_at) / Fold change /veh SNX32 (11753110_a_at) / RFU CDHR5 (11726645_a_at) / Fold change /veh CDHR5 (11726645_a_at) / RFU RCAN1 (11760418_a_at) / Fold change /veh RCAN1 (11760418_a_at) / RFU FAM167A (11723789_a_at) / Fold change /veh FAM167A (11723789_a_at) / RFU FAM26E (11764081_at) / Fold change /veh FAM26E (11764081_at) / RFU ISYNA1 (11749810_s_at) / Fold change /veh ISYNA1 (11749810_s_at) / RFU ACY1 (11761880_at) / Fold change /veh ACY1 (11761880_at) / RFU 11764098_at / Fold change /veh 11764098_at / RFU SAMD14 (11745864_x_at) / Fold change /veh SAMD14 (11745864_x_at) / RFU NPB (11741838_a_at) / Fold change /veh NPB (11741838_a_at) / RFU TMPRSS6 (11731388_a_at) / Fold change /veh TMPRSS6 (11731388_a_at) / RFU KRTAP10-2 (11738614_at) / Fold change /veh KRTAP10-2 (11738614_at) / RFU ARHGAP8 /// PRR5-ARHGAP8 (11727945_x_at) / Fold change /veh ARHGAP8 /// PRR5-ARHGAP8 (11727945_x_at) / RFU KRTAP5-7 /// NADSYN1 (11734609_at) / Fold change /veh KRTAP5-7 /// NADSYN1 (11734609_at) / RFU RASL12 (11751679_a_at) / Fold change /veh RASL12 (11751679_a_at) / RFU CDKN2B (11736163_a_at) / Fold change /veh CDKN2B (11736163_a_at) / RFU PRF1 (11729649_at) / Fold change /veh PRF1 (11729649_at) / RFU, ZNF638 /// ZNF638-IT1 / Fold change vs veh, ZNF638 /// ZNF638-IT1 / RFU, PANK3 / Fold change vs veh, PANK3 / RFU, SH3YL1 / Fold change vs veh, SH3YL1 / RFU, ZEB2 / Fold change vs veh, ZEB2 / RFU, NRIP1 / Fold change vs veh, NRIP1 / RFU, PTTG1IP / Fold change vs veh, PTTG1IP / RFU, CAPN2 / Fold change vs veh, CAPN2 / RFU, MED14 / Fold change vs veh, MED14 / RFU, SNORA58 / Fold change vs veh, SNORA58 / RFU, C1orf63 / Fold change vs veh, C1orf63 / RFU, LRRFIP1 / Fold change vs veh, LRRFIP1 / RFU, NDUFAF7 / Fold change vs veh, NDUFAF7 / RFU, SLC12A2 / Fold change vs veh, SLC12A2 / RFU, IBTK / Fold change vs veh, IBTK / RFU, ESF1 / Fold change vs veh, ESF1 / Fold change vs veh, TMEM50B / RFU, TAOK1 / Fold change vs veh, TAOK1 / RFU, ACBD3 / Fold change vs veh, ACBD3 / RFU, TMA16 / Fold change vs veh, TMA16 / RFU, RWDD3 / Fold change vs veh, RWDD3 / RFU, BCAT1 / Fold change vs veh, BCAT1 / RFU, EDEM3 / Fold change vs veh, EDEM3 / RFU, TMEM33 / Fold change vs veh, TMEM33 / RFU, WDR75 / Fold change vs veh, WDR75 / RFU, AHCTF1 / Fold change vs veh, AHCTF1 / RFU, TFRC / Fold change vs veh, TFRC / RFU, ZDHHC17 / Fold change vs veh, ZDHHC17 / RFU, NOM1 / Fold change vs veh, NOM1 / RFU, ARL8B / Fold change vs veh, ARL8B / RFU, ZBTB11 / Fold change vs veh, ZBTB11 / RFU, TAMM41 / Fold change vs veh, TAMM41 / RFU, KIAA1704 /// LOC100996395 / Fold change vs veh, KIAA1704 /// LOC100996395 / RFU, ING1 / Fold change vs veh, ING1 / RFU, TRMT61B / Fold change vs veh, TRMT61B / RFU, FUBP3 / Fold change vs veh, FUBP3 / RFU, TP53 / Fold change vs veh, TP53 / RFU, TNKS2 / Fold change vs veh, TNKS2 / RFU, ZFP14 / Fold change vs veh, ZFP14 / RFU, ACTR2 / Fold change vs veh, ACTR2 / RFU, PPP3R1 / Fold change vs veh, PPP3R1 / RFU, PIK3R1 / Fold change vs veh, PIK3R1 / RFU, HNRNPA1 / Fold change vs veh, HNRNPA1 / RFU, RNF170 / Fold change vs veh, RNF170 / RFU, ZNF28 / Fold change vs veh, ZNF28 / RFU, RNGTT / Fold change vs veh, RNGTT / RFU, OGT / Fold change vs veh, OGT / RFU, BRD1 / Fold change vs veh, BRD1 / RFU, MARS / Fold change vs veh, MARS / RFU, ZNF655 / Fold change vs veh, ZNF655 / RFU, FAHD1 / Fold change vs veh, FAHD1 / RFU, BDP1 / Fold change vs veh, BDP1 / RFU, LRRCC1 / Fold change vs veh, LRRCC1 / RFU, ARID1A / Fold change vs veh, ARID1A / RFU, ZNF146 / Fold change vs veh, ZNF146 / RFU, ZNF330 / Fold change vs veh, ZNF330 / RFU, GPN3 / Fold change vs veh, GPN3 / RFU, C9orf123 / Fold change vs veh, C9orf123 / RFU, N4BP2L2 / Fold change vs veh, N4BP2L2 / RFU, ARFIP1 / Fold change vs veh, ARFIP1 / RFU, FAM179B / Fold change vs veh, FAM179B / RFU, BCL10 / Fold change vs veh, BCL10 / RFU, UHRF1BP1L / Fold change vs veh, UHRF1BP1L / RFU, BET1 / Fold change vs veh, BET1 / RFU, CNOT2 / Fold change vs veh, CNOT2 / RFU, ZNF268 / Fold change vs veh, ZNF268 / Fold change vs veh, ZNF507 / RFU, DGCR2 / Fold change vs veh, DGCR2 / RFU, WDSUB1 / Fold change vs veh, WDSUB1 / Fold change vs veh, HSP90B1 /// MIR3652 / RFU, ADSS / Fold change vs veh, ADSS / RFU, GK / Fold change vs veh, GK / RFU, ZNF148 / Fold change vs veh, ZNF148 / RFU, TAF9 / Fold change vs veh, TAF9 / RFU, SLC1A5 / Fold change vs veh, SLC1A5 / RFU, SLMO2 / Fold change vs veh, SLMO2 / RFU, ABCC4 / Fold change vs veh, ABCC4 / RFU, LOC101060439 /// RAP1B / Fold change vs veh, LOC101060439 /// RAP1B / RFU, RFX7 / Fold change vs veh, RFX7 / RFU, GTPBP10 / Fold change vs veh, GTPBP10 / RFU, CNEP1R1 / Fold change vs veh, CNEP1R1 / RFU, BIVM-ERCC5 /// ERCC5 / Fold change vs veh, BIVM-ERCC5 /// ERCC5 / RFU, ILF3 / Fold change vs veh, ILF3 / RFU 11762660_at / Fold change /veh 11762660_at / RFU VCAN (11757783_s_at) / Fold change /veh VCAN (11757783_s_at) / RFU DDX43 (11728927_at) / Fold change /veh DDX43 (11728927_at) / RFU KRT8 (11758188_x_at) / Fold change /veh KRT8 (11758188_x_at) / RFU NKD1 (11759106_at) / Fold change /veh NKD1 (11759106_at) / RFU SRD5A1 (11742802_a_at) / Fold change /veh SRD5A1 (11742802_a_at) / RFU TPSAB1 /// TPSB2 (11721975_s_at) / Fold change /veh TPSAB1 /// TPSB2 (11721975_s_at) / RFU GSTM3 (11746129_a_at) / Fold change /veh GSTM3 (11746129_a_at) / RFU IL23R (11737362_x_at) / Fold change /veh IL23R (11737362_x_at) / RFU TMEM51 (11727254_a_at) / Fold change /veh TMEM51 (11727254_a_at) / RFU PIWIL2 (11732686_x_at) / Fold change /veh PIWIL2 (11732686_x_at) / RFU ORM1 (11744905_x_at) / Fold change /veh ORM1 (11744905_x_at) / RFU CCDC152 (11743942_at) / Fold change /veh CCDC152 (11743942_at) / RFU ECM1 (11717891_a_at) / Fold change /veh ECM1 (11717891_a_at) / RFU IL23R (11748794_a_at) / Fold change /veh IL23R (11748794_a_at) / RFU TNFAIP8L3 (11732012_x_at) / Fold change /veh TNFAIP8L3 (11732012_x_at) / RFU MBOAT4 (11741988_at) / Fold change /veh MBOAT4 (11741988_at) / RFU 11764193_at / Fold change /veh 11764193_at / RFU TMEM53 (11763286_at) / Fold change /veh TMEM53 (11763286_at) / RFU MAGEB2 (11727129_at) / Fold change /veh MAGEB2 (11727129_at) / RFU TMEM200A (11744735_a_at) / Fold change /veh TMEM200A (11744735_a_at) / RFU CCDC152 (11751479_a_at) / Fold change /veh CCDC152 (11751479_a_at) / RFU FAM211A (11726209_a_at) / Fold change /veh FAM211A (11726209_a_at) / RFU RGS16 (11746705_a_at) / Fold change /veh RGS16 (11746705_a_at) / RFU VCAN (11755009_s_at) / Fold change /veh VCAN (11755009_s_at) / RFU RHOB (11743442_s_at) / Fold change /veh RHOB (11743442_s_at) / RFU RGS16 (11720943_a_at) / Fold change /veh RGS16 (11720943_a_at) / RFU RGS16 (11720944_at) / Fold change /veh RGS16 (11720944_at) / RFU, VPS4B / Fold change vs veh, VPS4B / RFU, CREB1 / Fold change vs veh, CREB1 / RFU, DNAJC13 / Fold change vs veh, DNAJC13 / RFU, GNAQ / Fold change vs veh, GNAQ / RFU, CDK5R1 / Fold change vs veh, CDK5R1 / RFU, ZRANB3 / Fold change vs veh, ZRANB3 / RFU, CUL4A / Fold change vs veh, CUL4A / RFU, CCNY / Fold change vs veh, CCNY / RFU, UFL1 / Fold change vs veh, UFL1 / RFU, COG3 / Fold change vs veh, COG3 / RFU, DIAPH2 / Fold change vs veh, DIAPH2 / RFU, SKA2 / Fold change vs veh, SKA2 / RFU, AFF3 / Fold change vs veh, AFF3 / RFU, LMF1 / Fold change vs veh, LMF1 / RFU, IPO11 / Fold change vs veh, IPO11 / RFU, DFFB / Fold change vs veh, DFFB / RFU, FOXP1 / Fold change vs veh, FOXP1 / RFU, CARD8 / Fold change vs veh, CARD8 / RFU, STRN3 / Fold change vs veh, STRN3 / RFU, ADK / Fold change vs veh, ADK / RFU, RASSF2 / Fold change vs veh, RASSF2 / RFU, WIPF1 / Fold change vs veh, WIPF1 / RFU, LARP1B / Fold change vs veh, LARP1B / RFU, RASA1 / Fold change vs veh, RASA1 / RFU, RB1 / Fold change vs veh, RB1 / RFU, PPFIA1 / Fold change vs veh, PPFIA1 / RFU, MAT2A / Fold change vs veh, MAT2A / RFU, CCT5 / Fold change vs veh, CCT5 / RFU, WDR92 / Fold change vs veh, WDR92 / RFU, CUX1 / Fold change vs veh, CUX1 / RFU, TTC7A / Fold change vs veh, TTC7A / RFU, TMEM135 / Fold change vs veh, TMEM135 / RFU, DEPTOR / Fold change vs veh, DEPTOR / RFU, CPM / Fold change vs veh, CPM / RFU, DNAJB6 / Fold change vs veh, DNAJB6 / RFU, CACNA2D3 / Fold change vs veh, CACNA2D3 / RFU, DTX4 / Fold change vs veh, DTX4 / RFU, TFCP2 / Fold change vs veh, TFCP2 / RFU, GMCL1 /// GMCL1P1 / Fold change vs veh, GMCL1 /// GMCL1P1 / RFU, AEBP2 / Fold change vs veh, AEBP2 / RFU, SNHG1 /// SNORD22 /// SNORD25 /// SNORD26 /// SNORD27 /// SNORD28 /// SNORD29 /// SNORD31 / Fold change vs veh, SNHG1 /// SNORD22 /// SNORD25 /// SNORD26 /// SNORD27 /// SNORD28 /// SNORD29 /// SNORD31 / Fold change (Aza/veh), C12orf56 (ProbeSet 11735607_a_at) / Fold change (ACY-1035/veh), C12orf56 (ProbeSet 11735607_a_at) / Fold change (Aza/veh), FGFR1OP (ProbeSet 11751329_s_at) / Fold change (ACY-1035/veh), FGFR1OP (ProbeSet 11751329_s_at) / Fold change (Aza/veh), VPS36 (ProbeSet 11739960_a_at) / Fold change (ACY-1035/veh), VPS36 (ProbeSet 11739960_a_at) / RFU SYPL1 (11715823_x_at) / Fold change /veh SYPL1 (11715823_x_at) / RFU IGFBP7 (11715501_s_at) / Fold change /veh IGFBP7 (11715501_s_at) / RFU REEP3 (11722064_at) / Fold change /veh REEP3 (11722064_at) / RFU IGLL1 (11728026_x_at) / Fold change /veh IGLL1 (11728026_x_at): dose or concentration left out as unconfirmed
# Conditions: MV-4-11 cells, 48 hours
smiles,measurement,value
Nc1ccc(-c2cccs2)cc1NC(=O)c1ccc2c(c1)cc(C1CC1)n2CCN1CCOCC1 [ACY-1035],Fold change /veh TMCC2 (11721928_a_at),1.04

# From article PMC5218480 (PLoS ONE, 2017)
